Experimental data: PMC5888870 (2018)
Values belong to the molecule of their own block, whether it stands above or below them.

Experiments:
[1] = test system: 5'-biotin-TEG KRAS (DNA, G4) AGGGCGGTGTGGGAAGAGGGAAGAGGGGGAGGCAG; assay: SPR; conditions: 30 mM KCl; 10 mM Tris pH 6.6, 3% DMSO, 0.01% Tween-20; no binding at 20 μM
[2] = test system: Alexafluor647-KRAS (DNA, G4) AGGGCGGTGTGGGAAGAGGGAAGAGGGGGAGGCAG; assay: fluorescence intensity titration; conditions: 50 mM KCl, 25 mM Tris pH 6.4, 2-3% DMSO, room temperature; for KDapp: apparent
[3] = test system: shortened KRAS oligonucleotide (DNA, G4) AGGGCGGTGTGGGAATAGGGAA; assay: 1H NMR titration; conditions: 50 mM KCl, 100 μM DNA
[4] = test system: KRAS G4 (DNA, G4) AGGGCGGTGTGGGAAGAGGGAAGAGGGGGAGGCAG; assay: CD thermal melt; conditions: 30 mM KCl; 10 mM Tris pH 6.6, 1% DMSO; 10 μM DNA, 40 μM compound
[5] = test system: 5'-biotin-TEG KRAS (DNA, G4) AGGGCGGTGTGGGAAGAGGGAAGAGGGGGAGGCAG; assay: SPR, steady state; conditions: 30 mM KCl; 10 mM Tris pH 6.6, 3% DMSO, 0.01% Tween-20; apparent; text b35 prints 12.0 ± 0.5
[6] = test system: shortened KRAS oligonucleotide (DNA, G4) AGGGCGGTGTGGGAATAGGGAA; assay: WaterLOGSY NMR; conditions: 50 mM KCl, 25 mM Tris-d11 pH 6.6, 10% DMSO-d6, 293 K, 100 μM compound, 1 μM DNA
[7] = test system: 5'-biotin-TEG KRAS (DNA, G4) AGGGCGGTGTGGGAAGAGGGAAGAGGGGGAGGCAG; assay: SPR, Langmuir kinetic fit; conditions: 30 mM KCl; 10 mM Tris pH 6.6, 3% DMSO, 0.01% Tween-20
[8] = test system: dsDNA (DNA, duplex) CAATCGGATCGAATTCGATCCGATTG; assay: CD thermal melt; conditions: 30 mM KCl; 10 mM Tris pH 6.6, 1% DMSO; 10 μM DNA, 40 μM compound
[9] = test system: KRAS G4 (DNA, G4) AGGGCGGTGTGGGAAGAGGGAAGAGGGGGAGGCAG; assay: 13C NMR; conditions: 50 mM KCl; 25 mM Tris-d11 pH 6.6, 10% DMSO-d6, 293 K
[10] = test system: Alexafluor647-MYB (DNA, G4) GGAGGAGGAGGTCACGGAGGAGGAGGAGAAGGAGGAGGAGGA; assay: small molecule microarray; conditions: 100 mM KCl; PBST, room temperature, 500 nM DNA; immobilised compound
[11] = test system: Alexafluor647-AKTIP (RNA, G4) GGGGUGGGGCGGGGCGGGG; assay: small molecule microarray; conditions: 100 mM KCl; PBST, room temperature, 500 nM RNA; immobilised compound
[12] = test system: Alexafluor647-MYC (DNA, G4) AGGGTGGGGAGGGTGGGG; assay: small molecule microarray; conditions: 100 mM KCl; PBST, room temperature, 500 nM DNA; immobilised compound
[13] = test system: Alexafluor647-c-KIT (DNA, G4) AGGGAGGGCGCTGGGAGGAGGG; assay: small molecule microarray; conditions: 100 mM KCl; PBST, room temperature, 500 nM DNA; immobilised compound
[14] = test system: Alexafluor647-BCl2 (DNA, G4) AGGGGCGGGCGCGGGAGGAAGGGGGCGGGA; assay: small molecule microarray; conditions: 100 mM KCl; PBST, room temperature, 500 nM DNA; immobilised compound
[15] = test system: Alexafluor647-RB1 (DNA, G4) CGGGGGGTTTTGGGCGGC; assay: small molecule microarray; conditions: 100 mM KCl; PBST, room temperature, 500 nM DNA; immobilised compound
[16] = test system: Alexafluor647-VEGF (DNA, G4) CGGGGCGGGCCGGGGGCGGGGT; assay: small molecule microarray; conditions: 100 mM KCl; PBST, room temperature, 500 nM DNA; immobilised compound
[17] = test system: Alexafluor647-KRAS (DNA, G4) AGGGCGGTGTGGGAAGAGGGAAGAGGGGGAGGCAG; assay: small molecule microarray; conditions: 100 mM KCl; PBST, room temperature, 500 nM DNA; immobilised compound

Compound: CCCCC(CC)CNC(=N)NC(=N)NCCCCCCNC(=N)NC(=N)NCC(CC)CCCC (stereo not shown)
KDapp ([2]; 50 nM DNA): 19.3 ± 11.0 µM | KDapp [5]: 12.1 ± 0.5 µM | binding ([3]; 25 mM Tris-d11 pH 6.6, 10% DMSO-d6, 293 K, moderate, nonspecific): yes | ΔTm [4]: 7.1 ± 0.6 °C

Compound: CN[C@H](C(=O)O)C(C)C
binding ([6]; internal control): no

Second part, the molecule after the results:

KD [1]: > 20 µM | KDapp ([2]; only minimal fluorescence changes): > 200 µM | binding ([3]; 25 mM Tris-d11 pH 6.6, 10% DMSO-d6, 293 K, weak, nonspecific): weak | ΔTm [4]: < 1 °C
Compound: CC(C)NC(=N)NC(=N)Nc1ccc(Cl)cc1

KD [7]: 1.1 ± 0.5 µM | KD ([2]; 50 nM DNA): 0.0055 ± 0.0029 mM | binding ([3]; 25 mM Tris-d11 pH 6.6, 10% D2O, 5% DMSO-d6, 293 K): yes | ΔTm [4]: 13.0 ± 0.7 °C | binding [6]: yes | binding [8]: no | binding [9]: yes
Compound: N=C(NCCCCCCNC(=N)NC(=N)Nc1ccc(Cl)cc1)NC(=N)Nc1ccc(Cl)cc1

binding [10]: yes | binding [11]: yes | binding [12]: yes | binding [13]: yes | binding [14]: yes | ΔTm [4]: 31.6 ± 2.6 °C | binding [15]: yes | binding [16]: yes | binding [17]: yes
Compound: NCCOc1cc(C(=O)Nc2cc(OCCN)c3ccccc3n2)nc(C(=O)Nc2cc(OCCN)c3ccccc3n2)c1
